Test: pH of test solutions
Format: physicochemical

Measured: pH

O=[N+]([O-])O [Nitric Acid Solution, Nitric Acid]
2.00: solution of membrane compatibility test, Table 6 | solution of membrane compatibility test, Table 8 | solution of salt retention test, Table 7

Source: patent US11590453B2, “Membrane disinfectant” (Diversey, Inc., priority 2017, dated 2023)
